From paper PMC6200136 (Journal of medicinal chemistry, 2017)

How the values were obtained:
phospho-CDK1 (Tyr15) = experiment: Immunoblotting of phospho-CDK1; assay type: cell-based, human; conditions: synchronized HEK293T and MDA-MB-231 cells, 6 h drug treatment
[1] = tested on: HEK293T, MM1.S, and MDA-MB-231 cells; experiment: Cell viability across HEK293T, MM1.S and MDA-MB-231; assay type: cell-based; conditions: Homo sapiens, 72 h, read-out: cell viability IC50 values (range over cell lines)
[2] = tested on: phosphorylated TCTP (PLK1 substrate); experiment: Immunoblotting of phospho-TCTP; assay type: cell-based, human; conditions: synchronized HEK293T and MDA-MB-231 cells, 6 h drug treatment
Myt1-KD = biological target: T1, Myt1-KD (Homo sapiens, UniProt Q99640); experiment: DSF thermal shift, Myt1 kinase domain; assay type: binding; conditions: DSF screen, 100 μM
T1 sequence (Q99640 75-361): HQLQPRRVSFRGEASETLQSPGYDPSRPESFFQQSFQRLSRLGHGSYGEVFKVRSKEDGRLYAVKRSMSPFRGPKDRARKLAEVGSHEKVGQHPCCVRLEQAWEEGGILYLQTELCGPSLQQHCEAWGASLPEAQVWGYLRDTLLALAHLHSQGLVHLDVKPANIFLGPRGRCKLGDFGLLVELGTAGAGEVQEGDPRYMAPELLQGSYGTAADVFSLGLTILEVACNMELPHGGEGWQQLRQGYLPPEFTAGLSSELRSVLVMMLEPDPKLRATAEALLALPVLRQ

Row | Structure (SMILES) | effect on CDK1 phosphorylation (phospho-CDK1 (Tyr15)) | IC50 [1] | reduction of phosphorylation levels, times less effective than BI-2536 and 1 [2] | binding potential for Myt1 (in words) (Myt1-KD)
1 | C=CCn1c(=O)c2cnc(Nc3ccc(N4CCN(C)CC4)cc3)nc2n1-c1cccc(C(C)(C)O)n1 [MK-1775] | reducing the levels of phosphorylated CDK1 | 290 to 310 nM | about 10 times | 
2 | CC(=O)NCC(=O)N1[C@@H]2CC[C@H]1c1ccc(Nc3ncc(C(F)(F)F)c(NC4CCC4)n3)cc12 [compound 2] |  |  |  | no binding potential
3 | C[C@@H](Oc1cc(-n2cnc3ccc(CN4CCN(C)CC4)cc32)sc1C(N)=O)c1ccccc1C(F)(F)F [compound 1, (R)-5-(6-((4-methylpiperazin-1-yl)methyl)-1H-benzo[d]imidazol-1-yl)-3-(1-(2-(trifluoromethyl)phenyl)-ethoxy)thiophene-2-carboxamide] | no effect |  |  | 
4 | CC[C@@H]1C(=O)N(C)c2cnc(Nc3ccc(C(=O)NC4CCN(C)CC4)cc3OC)nc2N1C1CCCC1 [BI-2536] | no effect |  |  | 
